CCn1c2ccccc2c2cc(-n3nncc3-c3ccccc3)ccc21
Settings	solubility (mole fraction)
in acetonitrile, 281.7 K	0.00188
in acetonitrile, 287.8 K	0.00249
in acetonitrile, 295.4 K	0.00335
in acetonitrile, 304.8 K	0.00485
in acetonitrile, 312.3 K	0.0066
in acetonitrile, 319.4 K	0.00933
in acetonitrile, 325 K	0.0125
in ethanol, 279.2 K	0.000406
in ethanol, 281.5 K	0.000428
in ethanol, 285.8 K	0.000529
in ethanol, 288.8 K	0.000598
in ethanol, 291.9 K	0.000685
in ethanol, 297.2 K	0.000847
in ethanol, 307.8 K	0.00136
in ethanol, 313 K	0.0017
in ethanol, 318.9 K	0.00222
in ethanol, 323.2 K	0.00274
in ethanol, 329 K	0.00376
in ethyl acetate, 278.9 K	0.00403
in ethyl acetate, 282.5 K	0.00438
in ethyl acetate, 288.6 K	0.00531
in ethyl acetate, 293.8 K	0.0062
in ethyl acetate, 296.6 K	0.00681
in ethyl acetate, 301.9 K	0.00793
in ethyl acetate, 306.3 K	0.00903
in ethyl acetate, 310.5 K	0.0103
in ethyl acetate, 318 K	0.0129
in ethyl acetate, 322.8 K	0.0154
in ethyl acetate, 326.9 K	0.0182
in isopropanol, 279.4 K	0.000218
in isopropanol, 290.4 K	0.000352
in isopropanol, 294.2 K	0.000467
in isopropanol, 298.4 K	0.000571
in isopropanol, 300.9 K	0.000684
in isopropanol, 304.6 K	0.000794
in isopropanol, 307.7 K	0.000913
in isopropanol, 311 K	0.00113
in isopropanol, 319.5 K	0.00181
in isopropanol, 324.1 K	0.00226
in isopropanol, 330.2 K	0.00329
in methanol, 279.3 K	0.000409
in methanol, 281.9 K	0.000468
in methanol, 288.2 K	0.000591
in methanol, 300.7 K	0.000949
in methanol, 306.1 K	0.00116
in methanol, 314.8 K	0.00165
in methanol, 320.7 K	0.00222
in methanol, 325 K	0.00279
in n-butanol, 280.1 K	0.000585
in n-butanol, 283.7 K	0.000684
in n-butanol, 288.6 K	0.000848
in n-butanol, 292.7 K	0.00111
in n-butanol, 298.2 K	0.00138
in n-butanol, 307.4 K	0.00221
in n-butanol, 312.6 K	0.00276
in n-butanol, 320.4 K	0.00401
in n-butanol, 331.5 K	0.00688
in n-propanol, 283 K	0.000556
in n-propanol, 285.1 K	0.00067
in n-propanol, 288.8 K	0.000774
in n-propanol, 297.1 K	0.00111
in n-propanol, 307 K	0.00177
in n-propanol, 312.2 K	0.00223
in n-propanol, 319.4 K	0.00314
in n-propanol, 325.2 K	0.00418
in n-propanol, 330.2 K	0.00554
in sec-butanol, 279.9 K	0.000287
in sec-butanol, 283.2 K	0.000366
in sec-butanol, 291.7 K	0.000592
in sec-butanol, 294.6 K	0.00073
in sec-butanol, 298.4 K	0.000892
in sec-butanol, 306.7 K	0.00149
in sec-butanol, 315.7 K	0.0024
in sec-butanol, 319.1 K	0.00295
in sec-butanol, 321.3 K	0.0034
in sec-butanol, 329.5 K	0.0053
